Experimental data reported in publication PMC9916762, “Impact of Hydrophobic Chains in Five-Coordinate Glucoconjugate Pt(II) Anticancer Agents” (International Journal of Molecular Sciences, 2023).

How the values were obtained:
[1] = In-solution stability in aqueous solvents (1H NMR, UV-vis); type: physicochemical
From the text: Attempts to evaluate their stability in aqueous solutions were complicated due the poor solubility of the complexes in water. Only for 1-Me,Me was it possible to prepare a solution in the mixed solvent D2O:DMSO-d6 10:1. […] To further study the stability of 1-Me,Me in aqueous solvents, UV–vis absorption spectra over time were collected under the two experimental conditions (20% ethylene glycol, 0.1 M sodium acetate buffer at pH 4.0 and 0.6 M sodium nitrate and 2.0 M sodium formate, 0.1 M Hepes buffer at pH 7.5), used to obtain crystals of the adducts with the model protein hen egg white lysozyme (HEWL). HEWL has been used as a model system to study the interaction with proteins of several metallodrugs, including cisplatin [31, 32, 33], oxaliplatin [34, 35], and carboplatin [31, 32]. […] Over time, a red shift of the λmax from 275 to 278 nm and of the peak at 313 nm, which shifted up to 317 nm, was observed. […] Such results convinced us that five-coordinate compounds are the species administered to cells if DMSO stock solutions are immediately diluted in an aqueous medium.
The stability of the 1-R,R’ complexes in DMSO was studied by dissolving 5 mg of each complex in 250 μL of DMSO-d6 and then diluting 200 μL of this solution with 300 μL of DMSO-d6. […] The ^1H-NMR spectra of the resulting solutions were recorded over time. […]

[2] = test system: human epidermoid carcinoma cells (A431); assay: MTT cell viability assay, A431; type: cell-based
From the text: The immortalized human keratinocytes (HaCaT) were from Innoprot.

[3] = biological target: T1, hen egg white lysozyme (HEWL) (Gallus gallus, UniProt P00698); assay: X-ray structure of adducts with HEWL; type: binding
T1 construct: model protein hen egg white lysozyme (HEWL); purchased Merck KGaA (Darmstadt, Germany); host or cells: hen egg white (natural source, by the protein's name)
Description: To obtain information on the reactivity of 1-Me,Me with proteins, the X-ray structure of the adducts that the Pt compound forms with HEWL was solved.
The structures were obtained using crystals grown in 20% ethylene glycol, 0.1 M sodium acetate buffer at pH 4.0, and 0.6 M sodium nitrate (Structure A, Figure 8A) and in 2.0 M sodium formate and 0.1 M Hepes at pH 7.5 (Structure B, Figure 8B), refined at 1.25 and 1.33 Å resolutions, respectively (Table S2).
HEWL crystals were grown using the hanging drop vapour diffusion method and the following reservoirs: • (a) 20% ethylene glycol, 0.10 M sodium acetate at pH 4.0, and 0.60 M sodium nitrate • (b) 2.0 M sodium formate and 0.1 M HEPES at pH 7.5.
The crystals of the protein adduct with 1-Me,Me were obtained by the soaking procedure. The HEWL crystals were soaked in a solution consisting of 83% reservoir, 17% DMSO, and 3.3 mM 1-Me,Me.
The structures of the Pt–HEWL adducts were solved by the molecular replacement method, using the HEWL coordinates deposited in the PDB under the accession code 193L [40] as a model. Refinements were carried out with a CCP4 REFMAC5 [46], and the model building, adjustments, and inspection of the electron density maps was manually carried out using WinCoot.
The Pt binding sites were unambiguously identified by comparing 2Fo–Fc, residual Fo–Fc, and anomalous difference electron density maps. […]

[4] = test system: Calf thymus DNA; assay: Ethidium bromide displacement DNA binding assay; conditions: 0.05 M ammonium acetate pH 7.5, titration with complex
From the text: The interaction of Pt-based drugs with biological macromolecules deeply affects their biological activity. DNA represents a target for this kind of metallodrug, while proteins are considered both as carriers and targets. To obtain information on the reactivity of the synthesised Pt compounds with DNA, fluorescence intercalation displacement assays have been performed using ethidium bromide (EB) as the DNA intercalator. When bound to DNA, EB has an emission fluorescence of significant intensity. On the other hand, when it is displaced by a competitive DNA-binding molecule, it undergoes quenching by water molecules. Thus, if a molecule binds DNA by displacing EB, a significant reduction in the fluorescence intensity of the EB-DNA complex will be observed.
The ethidium bromide (EB) displacement assay was performed on a HORIBA FluoroMax-4 spectrofluorometer equipped with a thermostat bath. Calf thymus DNA was incubated with EB in 0.05 M of ammonium acetate at pH 7.5, at a DNA:EB molar ratio of 1:5 for 30 min in the dark at room temperature. Then, the fluorescence quenching of this complex was evaluated by adding to it increasing amounts of Pt compounds dissolved in DMSO (20 mM). Samples were equilibrated for 5 min before collecting each spectrum. […]

[5] = In-solution stability in DMSO (1H NMR, UV-vis); type: physicochemical; conditions: 50 μM in DMSO, 25 °C, up to 7 days
Description: The stability of the complexes in DMSO-d6, the solvent used to prepare stock solutions for biological experiments, was evaluated by recording their UV–vis absorptions and ^1H-NMR spectra over time.
UV–vis absorption spectra of 1-Me,Me were recorded in DMSO for 5 h and then after 24 h and 7 days (Figure 5). […] In fact, the λmax experienced a blue shift from 278 to 269 nm, giving rise to an isosbestic point at 275 nm. In addition, a decrease in the absorbance of the shoulder at 300 nm is observed, together with an absorbance increase in the shoulder at 260 nm. […] It is highly probable that a slow release of ethene and dmphen can occur. This would lead to the formation of the square planar species of type 4-R,R’, as reported in Scheme 3.
In all cases, no cleavage of the Pt–carbene bond was detected. Figure 6 reports the ^1H NMR spectra of 1-Me,Oct after dissolution, 1.5, 5, and 24 h.
The stability of the 1-R,R’ complexes in DMSO was studied by dissolving 5 mg of each complex in 250 μL of DMSO-d6 and then diluting 200 μL of this solution with 300 μL of DMSO-d6. The stability of the 1-R,R’ complexes in aqueous solvents was studied by dissolving 5 mg of each complex in 250 μL of DMSO-d6 and then diluting 50 μL of this solution with 500 μL of D2O. The ^1H-NMR spectra of the resulting solutions were recorded over time. […]

Platinum(1+), (2,9-dimethyl-1,10-phenanthroline- N1,N10)(η2-ethene)methyl[1,3-dihydro-1,3-dimethyl-4-[1-[2,3,4,6-tetrakis-O-(acetyl)-β-D-glucopyranosyl]-1H-1,2,3-triazol-4-yl]-2H-imidazol-2-ylidene], 1,1,1-trifluoromethanesulfonate [1-Me,Me]
stability, UV-vis spectra over time ([1]; 50 μM, 2.0 M sodium formate, 0.1 M Hepes buffer pH 7.5): stable over time | stability, NMR spectra over time ([1]; D2O:DMSO-d6 10:1, after 24 h): no appreciable changes | IC50 ([2]; 48 h incubation, MTT): 20 ± 2 µM | SI (selectivity index) ([2]; ratio IC50 HaCaT / IC50 A431): 0.42 | Pt binding sites on HEWL ([3]; Structure A: 20% ethylene glycol, 0.1 M sodium acetate pH 4.0, 0.6 M sodium nitrate): two Pt binding sites were observed | Pt binding sites on HEWL ([3]; Structure B: 2.0 M sodium formate, 0.1 M Hepes pH 7.5): a single Pt binding site was observed | fluorescence intensity of EB-DNA complex [4]: significant reduction in fluorescence intensity | stability, UV-vis spectra over time [5]: poor stability
